In US10538532B2, “Hepatitis B antiviral agents” (ENANTA PHARMACEUTICALS, INC., priority 2016, dated 2020):
Where two headings read alike, the source gives them in different places.

System: HBV
Assay: HepAD38 antiviral assay: reduction of viral product accumulation (virion DNA by qPCR, HBsAg or HBeAg by ELISA)
Format: cell-based, hepatitis B virus
Conditions: HepAD38 cells, five days after compound addition, concentration reducing viral product accumulation by 50% relative to no drug controls, read-out: HepAD38 EC50
Experimental: Methods: HepAD38 cells are maintained as previously reported (Ladner et al, Antimicrob. Agents Chemother. 1997, […], 1715). Briefly, cells are passaged upon attaining confluency in DMEM/F12 media in the presence of 10% FBS, Penn/Strep, 250 μg/mL G418, and 1 ug/ml tetracycline. Novel compounds are screened by first washing cells three times with PBS to remove tetracycline, and plating in 96 well plates at 35,000 cells/well. Compounds dissolved in DMSO are then diluted 1:200 into wells containing cells. Five days after compound addition, material is harvested for analysis. For an extended 8 day analysis, cells are plated and treated as described above, but media and compound are refreshed on d2 and d5 post initial treatment.
On harvest day, virion DNA is obtained by lysing with Sidestep Lysis and Stabilization Buffer and then quantified via quantitative real time PCR. Commercially available ELISA kits are used to quantitate the viral proteins HBsAg (Alpco) or HbeAg (US Biological) by following the manufacturer's recommended protocol after diluting samples to match the linear range of their respective assays. Irrespective of readout, compound concentrations that reduce viral product accumulation in the cell lysates or supernatants by 50% relative to no drug controls (EC50) are reported; EC50 ranges are as follows: A<0.1 μM; B 0.1-0.4 μM; C>0.4 μM.

[1] = Hepatitis B virus, HePAD38, 120 h

| Compound | EC50 [1] [nM] | EC50 [nM] |
| --- | --- | --- |
| O=C(Nc1cc(F)c(F)c(F)c1)c1ccc(Cl)c(S(=O)(=O)C2CCOCC2)c1 [Example 69] | 100 to 400 |  |
| O=C(Nc1cc(F)c(F)c(F)c1)c1ccc(Cl)c(S(=O)(=O)C2CC[C@H](O)[C@H](O)C2)c1 (stereo partly drawn) [Example 70] | 100 to 400 |  |
| O=C(Nc1cc(F)c(F)c(F)c1)c1ccc(Cl)c(Sc2ccccc2)c1 [Example 71] | > 400 |  |
| N[C@H]1CC[C@H](S(=O)(=O)c2cc(C(=O)Nc3cc(F)c(F)c(F)c3)ccc2Cl)CC1 [Example 72] | > 400 |  |
| CN(C)[C@H]1CC[C@H](S(=O)(=O)c2cc(C(=O)Nc3cc(F)c(F)c(F)c3)ccc2Cl)CC1 [Example 73] | > 400 |  |
| O=C(Nc1cc(F)c(F)c(F)c1)c1ccc(Cl)c(S(=O)(=O)C2CCNCC2)c1 [Example 74] | > 400 |  |
| CC(C)[C@H](N)C(=O)O[C@H]1CC[C@H](S(=O)(=O)c2cc(C(=O)Nc3cc(F)c(F)c(F)c3)ccc2Cl)CC1 [Example 75] | 100 to 400 |  |
| CC(C)[C@H](NC(=O)OC(C)(C)C)C(=O)O[C@H]1CC[C@H](S(=O)(=O)c2cc(C(=O)Nc3cc(F)c(F)c(F)c3)ccc2Cl)CC1 [Example 76] | 100 to 400 |  |
| CCOC(=O)CS(=O)(=O)c1cc(C(=O)Nc2cc(F)c(F)c(F)c2)ccc1Cl [Example 77] | > 400 |  |
| O=C(Nc1cc(F)c(F)c(F)c1)c1ccc(Cl)c(S[C@@H]2C[C@H](O)C[C@H](O)C2)c1 [Example 78] | > 400 |  |
| O=C(Nc1cc(F)c(F)c(F)c1)c1ccc(Cl)c(S(=O)(=O)[C@@H]2C[C@H](O)C[C@H](O)C2)c1 [Example 79] | > 400 |  |
| C=CCC1(S(=O)(=O)c2cc(C(=O)Nc3cc(F)c(F)c(F)c3)ccc2Cl)CCCCC1 [Example 81] | > 400 |  |
| O=C(Nc1cc(F)c(F)c(F)c1)c1ccc(Cl)c(S(=O)(=O)c2ccccc2)c1 [Example 82] | > 400 |  |
| O=C(Nc1cc(F)c(F)c(F)c1)c1ccc(Cl)c(S(=O)(=O)C2CC[C@@H](O)[C@@H](O)CC2)c1 (stereo partly drawn) [Example 83] | 100 to 400 |  |
| O=C(Nc1cc(F)c(F)c(F)c1)c1ccc(Cl)c(S(=O)(=O)C2C[C@@H](O)[C@@H](O)C2)c1 (stereo partly drawn) [Example 85] | 100 to 400 |  |
| O=C(Nc1cc(F)c(F)c(F)c1)c1ccc(Cl)c(S(=O)(=O)C2CC3O[C@H]3C2)c1 (stereo partly drawn) [Example 86] |  | > 400 |
| O=C(Nc1cc(F)c(F)c(F)c1)c1ccc(Cl)c(S(=O)(=O)C2CC3O[C@H]3C2)c1 (stereo partly drawn) [Example 87] |  | 100 to 400 |
| O=C(Nc1cc(F)c(F)c(F)c1)c1ccc(Cl)c(S(=O)(=O)C2(CCCO)CCCCC2)c1 [Example 88] | > 400 |  |
| O=C(Nc1cc(F)c(F)c(F)c1)c1ccc(Cl)c(S(=O)(=O)C2(CCO)CCCCC2)c1 [Example 89] | 100 to 400 |  |
| CC1(C)O[C@@H]2[C@@H](CSc3cc(C(=O)Nc4cc(F)c(F)c(F)c4)ccc3Cl)OC(=O)[C@]2(C)O1 [Example 90] | > 400 |  |
| CCOC(=O)C(F)(F)Sc1cc(C(=O)Nc2cc(F)c(F)c(F)c2)ccc1Cl [Example 91] | > 400 |  |

| Compound | EC50 [1] [nM] | EC50 [nM] |
| --- | --- | --- |
| CCOC(=O)C(C)(C)S(=O)(=O)c1cc(C(=O)Nc2cc(F)c(F)c(F)c2)ccc1Cl [Example 92] | > 400 |  |
| CCOC(=O)C(F)(F)S(=O)(=O)c1cc(C(=O)Nc2cc(F)c(F)c(F)c2)ccc1Cl [Example 93] | > 400 |  |
| CCOC(=O)C(C)S(=O)(=O)c1cc(C(=O)Nc2cc(F)c(F)c(F)c2)ccc1Cl (stereo not drawn) [Example 94] | > 400 |  |
| O=C(Nc1cc(F)c(F)c(F)c1)c1ccc(Cl)c(S(=O)(=O)C2CCN(c3ccccn3)CC2)c1 [Example 95] | > 400 |  |
| CN1CCC(S(=O)(=O)c2cc(C(=O)Nc3cc(F)c(F)c(F)c3)ccc2Cl)CC1 [Example 96] | > 400 |  |
| C[C@]1(O)C(=O)O[C@H](CSc2cc(C(=O)Nc3cc(F)c(F)c(F)c3)ccc2Cl)[C@H]1O [Example 97] | > 400 |  |
| CC1(C)O[C@@H]2[C@@H](CS(=O)(=O)c3cc(C(=O)Nc4cc(F)c(F)c(F)c4)ccc3Cl)OC(=O)[C@]2(C)O1 [Example 98] | > 400 |  |
| C[C@]1(O)C(=O)O[C@H](CS(=O)(=O)c2cc(C(=O)Nc3cc(F)c(F)c(F)c3)ccc2Cl)[C@H]1O [Example 99] | > 400 |  |
| CC1(C)O[C@@H]2[C@@H](CS(=O)(=O)c3cc(C(=O)Nc4cc(F)c(F)c(F)c4)ccc3Cl)OC(=O)[C@@H]2O1 [Example 100] | > 400 |  |
| O=C(Nc1cc(F)c(F)c(F)c1)c1ccc(Cl)c(S(=O)(=O)C[C@H]2OC(=O)[C@H](O)[C@@H]2O)c1 [Example 101] | > 400 |  |
| O=C(Nc1cc(F)c(F)c(F)c1)c1ccc(Cl)c(S(=O)(=O)C[C@@H]2C[C@@H](O)[C@@H](O)C2)c1 [Example 102] | 100 to 400 |  |
| CCOC(=O)C(Cc1ccncc1)S(=O)(=O)c1cc(C(=O)Nc2cc(F)c(F)c(F)c2)ccc1Cl (stereo not drawn) [Example 103] | > 400 |  |
| C=C1CCC(S(=O)(=O)c2cc(C(=O)Nc3cc(F)c(F)c(F)c3)ccc2Cl)CC1 [Example 104] | 100 to 400 |  |
| O=C(Nc1cc(F)c(F)c(F)c1)c1ccc(Cl)c(S(=O)(=O)C[C@H]2C[C@@H](O)C2)c1 [Example 105] | 100 to 400 |  |
| O=C(Nc1cc(F)c(F)c(F)c1)c1ccc(Cl)c(S(=O)(=O)[C@H]2C3CCC2C[C@H](CO)C3)c1 [Example 106] | < 100 |  |
| CC1(C)O[C@H]2[C@H](CO[C@@H]2CS(=O)(=O)c2cc(C(=O)Nc3cc(F)c(F)c(F)c3)ccc2Cl)O1 [Example 107] | > 400 |  |
| O=C(Nc1cc(F)c(F)c(F)c1)c1ccc(Cl)c(S(=O)(=O)C[C@H]2OC[C@H](O)[C@@H]2O)c1 [Example 108] | > 400 |  |
| O=C(Nc1cc(F)c(F)c(F)c1)c1ccc(Cl)c(S(=O)(=O)[C@H]2CC[C@](O)(CO)CC2)c1 [Example 109] | 100 to 400 |  |
| O=C(Nc1cc(F)c(F)c(F)c1)c1ccc(Cl)c(S(=O)(=O)[C@H]2CC[C@@](O)(CO)CC2)c1 [Example 110] | 100 to 400 |  |
| O=C(Nc1cc(F)c(F)c(F)c1)c1ccc(Cl)c(S(=O)(=O)C[C@H]2CC[C@H](O)CC2)c1 [Example 111] | < 100 |  |
| O=C(Nc1cc(F)c(F)c(F)c1)c1ccc(Cl)c(S(=O)(=O)C[C@H]2CC[C@@H](O)CC2)c1 [Example 112] | < 100 |  |

| Compound | EC50 [1] [nM] | EC50 [nM] |
| --- | --- | --- |
| O=C(Nc1cc(F)c(F)c(F)c1)c1ccc(Cl)c(S(=O)(=O)CC2CCOCC2)c1 [Example 113] | 100 to 400 |  |
| O=C(Nc1cc(F)c(F)c(F)c1)c1ccc(Cl)c(S(=O)(=O)[C@H]2CC[C@@H](CO)CC2)c1 [Example 114] | 100 to 400 |  |
| O=C(Nc1cc(F)c(F)c(F)c1)c1ccc(Cl)c(S(=O)(=O)[C@H]2CC[C@H](CO)CC2)c1 [Example 115] | 100 to 400 |  |
| CCOC(=O)C(CC1CCOCC1)S(=O)(=O)c1cc(C(=O)Nc2cc(F)c(F)c(F)c2)ccc1Cl (stereo not drawn) [Example 116] | > 400 |  |
| CC([C@H]1C[C@@H](O)C1)S(=O)(=O)c1cc(C(=O)Nc2cc(F)c(F)c(F)c2)ccc1Cl (stereo partly drawn) [Example 117] | 100 to 400 |  |
| CC(C)([C@H]1C[C@@H](O)C1)S(=O)(=O)c1cc(C(=O)Nc2cc(F)c(F)c(F)c2)ccc1Cl [Example 118] | 100 to 400 |  |
| CC(C)(C)OC(=O)N1C2CCC1CC(S(=O)(=O)c1cc(C(=O)Nc3cc(F)c(F)c(F)c3)ccc1Cl)C2 (stereo not drawn) [Example 119] |  | > 400 |
| O=C(Nc1cc(F)c(F)c(F)c1)c1ccc(Cl)c(S(=O)(=O)[C@H]2C3CC[C@H]2CC(O)C(O)C3)c1 (stereo partly drawn) [Example 120] | < 100 |  |
| CC(C)(c1ccncc1)S(=O)(=O)c1cc(C(=O)Nc2cc(F)c(F)c(F)c2)ccc1Cl [Example 121] | > 400 |  |
| O=C(Nc1cc(F)c(F)c(F)c1)c1ccc(Cl)c(S(=O)(=O)CCC2CCOCC2)c1 [Example 123] | 100 to 400 |  |
| CC(C)(CO)S(=O)(=O)c1cc(C(=O)Nc2cc(F)c(F)c(F)c2)ccc1Cl [Example 124] | 100 to 400 |  |
| O=C(Nc1cc(F)c(F)c(F)c1)c1ccc(Cl)c(S(=O)(=O)C2CCCC(O)CC2)c1 (stereo not drawn) [Example 125] | 100 to 400 |  |
| CC1(C)OC[C@@]2(CC3CC[C@@H](C2)[C@H]3S(=O)(=O)c2cc(C(=O)Nc3ccc(F)c(F)c3)ccc2Cl)O1 [Example 126] | 100 to 400 |  |
| O=C(Nc1ccc(F)c(F)c1)c1ccc(Cl)c(S(=O)(=O)[C@H]2C3CC[C@H]2C[C@](O)(CO)C3)c1 [Example 127] | < 100 |  |
| CC1(C)OC[C@@]2(CC3CC[C@@H](C2)[C@H]3S(=O)(=O)c2cc(C(=O)Nc3cc(F)c(F)c(F)c3)ccc2Cl)O1 [Example 128] | 100 to 400 |  |
| O=C[C@]1(O)CC2CC[C@@H](C1)[C@H]2S(=O)(=O)c1cc(C(=O)Nc2cc(F)c(F)c(F)c2)ccc1Cl [Example 129] | < 100 |  |
| O=C1CC2CC[C@@H](C1)[C@H]2S(=O)(=O)c1cc(C(=O)Nc2cc(F)c(F)c(F)c2)ccc1Cl [Example 130] | < 100 |  |
| O=C(Nc1cc(F)c(F)c(F)c1)c1ccc(Cl)c(S(=O)(=O)[C@H]2C3CC[C@H]2C[C@](O)(C(=O)O)C3)c1 [Example 131] | > 400 |  |
| CC(=O)OC[C@]1(O)CC2CC[C@@H](C1)[C@H]2S(=O)(=O)c1cc(C(=O)Nc2cc(F)c(F)c(F)c2)ccc1Cl [Example 132] | < 100 |  |
| O=C(Nc1cc(F)c(F)c(F)c1)c1ccc(Cl)c(S(=O)(=O)C2C3CCCC2CC(O)(CO)C3)c1 (stereo not drawn) [Example 133] | 100 to 400 |  |
| O=C(Nc1cc(F)c(F)c(F)c1)c1ccc(Cl)c(S[C@H]2C3CC[C@H]2C[C@](O)(CO)C3)c1 [Example 134] | 100 to 400 |  |
